Consider three compounds from patent publication US11272709B2, “Amidine substituted benzoyl derivatives useful as herbicides” (Syngenta Participations AG, priority 2018, dated 2022).

Common to all, as to type: in vivo
The nature of assay [1]: Comparative experiment, compound 1.049 versus Compound C1, (%) phytotoxicity observed (Table B2). Particulars: rate 31 g/ha; for (%) phytotoxicity observed, POST Application ECHCG / (%) phytotoxicity observed, PRE Application ECHCG: Echinochloa crus-galli (ECHCG); for (%) phytotoxicity observed, POST Application SETFA / (%) phytotoxicity observed, PRE Application SETFA: Setaria faberi (SETFA). How it is done: Seeds of a variety of test species are sown in standard soil in pots (Lolium perenne (LOLPE), Amaranthus retoflexus (AMARE), Abutilon theophrasti (ABUTH), Setaria faberi (SETFA), Echinochloa crus-galli (ECHCG), Ipomoea hederacea (IPOHE)). After cultivation for one day (pre-emergence) or after 8 days cultivation (post-emergence) under controlled conditions in a glasshouse (at 24/16° C., day/night; 14 hours light; 65% humidity), the plants are sprayed with an aqueous spray solution derived from the formulation of the technical active ingredient in acetone/water (50:50) solution containing 0.5% Tween 20 (polyoxyethelyene sorbitan monolaurate, CAS RN 9005-64-5). Compounds are applied at […] unless otherwise indicated. The test plants are then grown in a glasshouse under controlled conditions in a glasshouse (at 24/16° C., day/night; 14 hours light; 65% humidity) and watered twice daily. After 13 days for pre and post-emergence, the test is evaluated for the percentage damage caused to the plant. The biological activities are shown in the following table on a five point scale (5=80-100%; 4=60-79%; 3=40-59%; 2=20-39%; 1=0-19%). [table]

Assay [2] deals with Amaranthus retoflexus (AMARE). Put plainly: Pre-emergence herbicidal glasshouse test, Amaranthus retoflexus (AMARE). The note with it: 500 g/h, evaluated after 13 days. In short, it runs like this:
(§1)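 Plants sprayed 1 day (pre-emergence) or 8 days (post-emergence) after sowing, at 500 g/h unless indicated, in acetone/water (50:50) with 0.5% Tween 20. Glasshouse 24/16 °C, 14 h light, 65% humidity. Damage scored at 13 days on a five-point scale (5=80-100% to 1=0-19%).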

Assay [3] relates to Abutilon theophrasti (ABUTH). Put plainly: Pre-emergence herbicidal glasshouse test, Abutilon theophrasti (ABUTH). Particulars: 500 g/h, evaluated after 13 days. In short, it runs like this: as §1
Assay [4] has as its system Setaria faberi (SETFA). In words: Pre-emergence herbicidal glasshouse test, Setaria faberi (SETFA). The note with it: 500 g/h, evaluated after 13 days. In short, it runs like this:
as §1

Assay [5] relates to Echinochloa crus-galli (ECHCG). In words: Pre-emergence herbicidal glasshouse test, Echinochloa crus-galli (ECHCG). Particulars: 500 g/h, evaluated after 13 days. In short, it runs like this:
as §1

Assay [6] relates to Ipomoea hederacea (IPOHE). Put plainly: Pre-emergence herbicidal glasshouse test, Ipomoea hederacea (IPOHE). The note with it: 500 g/h, evaluated after 13 days. Put shortly: as §1
Assay [7] concerns Amaranthus retoflexus (AMARE). In words: Post-emergence herbicidal glasshouse test, Amaranthus retoflexus (AMARE). Particulars: 500 g/h, evaluated after 13 days. In short, it runs like this:
as §1

Assay [8] concerns Abutilon theophrasti (ABUTH). In words: Post-emergence herbicidal glasshouse test, Abutilon theophrasti (ABUTH). The note with it: 500 g/h, evaluated after 13 days. In short, it runs like this: as §1
Assay [9] has as its system Setaria faberi (SETFA). Put plainly: Post-emergence herbicidal glasshouse test, Setaria faberi (SETFA). The note with it: 500 g/h, evaluated after 13 days. Put shortly: as §1
Assay [10] has as its system Echinochloa crus-galli (ECHCG). Put plainly: Post-emergence herbicidal glasshouse test, Echinochloa crus-galli (ECHCG). The note with it: 500 g/h, evaluated after 13 days. Put shortly:
as §1

For assay [11], the system named is Ipomoea hederacea (IPOHE). Put plainly: Post-emergence herbicidal glasshouse test, Ipomoea hederacea (IPOHE). The note with it: 500 g/h, evaluated after 13 days. Put shortly: as §1

For the compound `Cn1nnnc1NC(=O)c1ccc(C(F)(F)F)c(N)c1Cl` [Cl], in [1], the “(%) phytotoxicity observed, POST Application ECHCG” value amounted to 0%; the “(%) phytotoxicity observed, PRE Application ECHCG” value was 0%; the “(%) phytotoxicity observed, POST Application SETFA” value is listed as 20%; the “(%) phytotoxicity observed, PRE Application SETFA” value was 0%.
With `CN(C)C=Nc1c(C(F)(F)F)ccc(C(=O)Nc2nnnn2C)c1Cl` [Compound 1.049], the “PRE Application AMARE, percentage damage (five point scale)” value in assay [2] is on record as 5 (5=80-100%). Further, the “PRE Application ABUTH, percentage damage (five point scale)” value in assay [3] was 5 (5=80-100%). Moreover, in the assay on Setaria faberi (SETFA) [4], the “PRE Application SETFA, percentage damage (five point scale)” value is listed as 5 (5=80-100%). In addition, in assay [5], the “PRE Application ECHCG, percentage damage (five point scale)” value is 5 (5=80-100%). The “PRE Application IPOHE, percentage damage (five point scale)” value in [6] is on record as 5 (5=80-100%). Also, in assay [7], the “POST Application AMARE, percentage damage (five point scale)” value was 5 (5=80-100%). Also, in assay [8], the “POST Application ABUTH, percentage damage (five point scale)” value is on record as 5 (5=80-100%). Further, the “POST Application SETFA, percentage damage (five point scale)” value in the assay on Setaria faberi (SETFA) [9] was 5 (5=80-100%). The “POST Application ECHCG, percentage damage (five point scale)” value in assay [10] is 5 (5=80-100%). In addition, the “POST Application IPOHE, percentage damage (five point scale)” value in assay [11] is 5 (5=80-100%). Further, in [1], the “(%) phytotoxicity observed, POST Application ECHCG” value came to 90%; the “(%) phytotoxicity observed, PRE Application ECHCG” value is listed as 90%; the “(%) phytotoxicity observed, POST Application SETFA” value is given as 90%; the “(%) phytotoxicity observed, PRE Application SETFA” value came out at 90%.
For the compound `COCCn1nnnc1NC(=O)c1ccc(S(C)(=O)=O)c(N=CN(C)C)c1C` [Compound 7.003], the “PRE Application AMARE, percentage damage (five point scale)” value in assay [2] was 5 (5=80-100%). Also, the “PRE Application ABUTH, percentage damage (five point scale)” value in [3] is 5 (5=80-100%). Also, the “PRE Application SETFA, percentage damage (five point scale)” value in the assay with Setaria faberi (SETFA) [4] was 5 (5=80-100%). Besides, in [5], the “PRE Application ECHCG, percentage damage (five point scale)” value is on record as 5 (5=80-100%). Besides, the “PRE Application IPOHE, percentage damage (five point scale)” value in [6] is listed as 5 (5=80-100%). Besides, the “POST Application AMARE, percentage damage (five point scale)” value in assay [7] is 5 (5=80-100%). Moreover, in assay [8], the “POST Application ABUTH, percentage damage (five point scale)” value was 5 (5=80-100%). For the same compound, the “POST Application SETFA, percentage damage (five point scale)” value with Setaria faberi (SETFA) [9] is given as 5 (5=80-100%). For the same compound, the “POST Application ECHCG, percentage damage (five point scale)” value in assay [10] is recorded as 5 (5=80-100%). Further, in assay [11], the “POST Application IPOHE, percentage damage (five point scale)” value is given as 5 (5=80-100%).
